Each structure is given as a SMILES string.

The test system of one assay is Molt-4 cells. The assay is described as follows: Cell viability counter screen assay (CellTiter-Glo) in Molt-4 cells. The assay is classed as cell-based. As to conditions: 24 hours, 10% Human Serum, 50% decrease in cell viability. The source says:
(§1) The acute lymphoblastic leukemia (ALL) human cell line RS4;11 (ATCC, Manassas VA) was used as the primary human cell line to assess the cellular activity of compound of the present Examples in vitro and their efficacy in vivo. BH3 profiling, a mitochondrial assay that classifies blocks in the intrinsic apoptotic pathway, has shown that RS4;11 cells were highly dependent on Bcl-2 protein for survival and were sensitive to a Bcl-2 inhibitor (Blood. 2008; 111(4):2300-2309). […] The acute lymphoblastic leukemia cell line Molt-4, which is derived from immature T-lymphoid cells (T-ALL), was used as a counter screen assay.
(§2) Frozen RS4;11 or Molt-4 cells (ATCC, Manassas, VA, USA) were thawed overnight in RPMI 1640 media (Thermo Fisher Scientific, Waltham, MA, USA) supplemented with 1% penicillin/streptomycin (Thermo Fisher Scientific, Waltham, MA, USA), and 10% Human Serum (Sigma, St. Louis, MO, USA). 3000 Cells (0.1×10^6/mL) were seeded in each well of 384-well plate and were treated for 24 hours in a humidified chamber with 5% CO2. Cell viability was determined by CellTiter-Glo as described by the manufacturer's instructions (Promega Corporation, Madison, WI, USA). Responses were determined as a percentage of the control treated cells and the effective concentration (EC50) to induce a 50% decrease in cell viability were determined from sigmoidal dose-response curves using Dotmatics (Dotmatics Software Company, Bishops Stortford, Hertfordshire, England).

The next assay has as its system RS4;11 cells. The assay can be described thus: Cell viability assay (CellTiter-Glo) in RS4;11 cell line. The assay is classed as cell-based. The following applies: 24 hours, 10% Human Serum, 50% decrease in cell viability.
Excerpt: as §1, §2

The EC50 is the concentration giving half of the maximal effect. The low end stands for higher potency in that assay, the high end for lower potency in that assay. In the case of `CC1(C)CC(c2ccc(Cl)cc2)=C2CN3CCN(c4ccc(C(=O)NS(=O)(=O)c5ccc(NCC6CCOCC6)c([N+](=O)[O-])c5)c(N5CCCOc6nc7[nH]ccc7cc65)c4)C[C@H]3COCCCO[C@@H]2C1` [Example 1, 4-((4aS,10aR)-14-(4-chlorophenyl)-12,12-dimethyl-1,2,4a,5,8,9,10a,11,13,15-decahydro-7H,12H-benzo[f]pyrazino[2,1-c][1,8]dioxa[4]azacycloundecin-3(4H)-yl)-2-(3,4-dihydro-2H-pyrrolo[3′,2′:5,6]pyrido[2,3-b][1,4]oxazepin-1(7H)-yl)-N-((3-nitro-4-(((tetrahydro-2H-pyran-4-yl)methyl)amino)phenyl)sulfonyl)benzamide], the EC50 in the assay on Molt-4 cells is above 10 µM; in the assay on RS4;11 cells, 0.00401 µM.
On the same counts, the results for `CC1(C)CC(c2ccc(Cl)cc2)=C2CN3CCN(c4ccc(C(=O)NS(=O)(=O)c5ccc(NC[C@H]6CC[C@](C)(O)CO6)c([N+](=O)[O-])c5)c(N5CCCOc6nc7[nH]ccc7cc65)c4)C[C@H]3COCCCO[C@@H]2C1` [Example 2, 4-((4aS,10aR)-14-(4-chlorophenyl)-12,12-dimethyl-1,2,4a,5,8,9,10a,11,13,15-decahydro-7H,12H-benzo[f]pyrazino[2,1-c][1,8]dioxa[4]azacycloundecin-3(4H)-yl)-2-(3,4-dihydro-2H-pyrrolo[3′,2′:5,6]pyrido[2,3-h][1,4]oxazepin-1(7H)-yl)-N-((4-((((2R,5S)-5-hydroxy-5-methyltetrahydro-2H-pyran-2-yl)methyl)amino)-3-nitrophenyl)sulfonyl)benzamide] are 1.22 µM and 0.000651 µM.
For the molecule `CC1(C)CC(c2ccc(Cl)cc2)=C2CN3CCN(c4ccc(C(=O)NS(=O)(=O)c5ccc(NC[C@H]6COCCO6)c([N+](=O)[O-])c5)c(N5CCCOc6nc7[nH]ccc7cc65)c4)C[C@H]3COCCCO[C@@H]2C1` [Example 3, N-((4-((((S)-1,4-dioxan-2-yl)methyl)amino)-3-nitrophenyl)sulfonyl)-4-((4aS,10aR)-14-(4-chlorophenyl)-12,12-dimethyl-1,2,4a,5,8,9,10a,11,13,15-decahydro-7H,12H-benzo[f]pyrazino[2,1-c][1,8]dioxa[4]azacycloundecin-3(4H)-yl)-2-(3,4-dihydro-2H-pyrrolo[3′,2′:5,6]pyrido[2,3-b][1,4]oxazepin-1(7H)-yl)benzamide], the EC50 in the assay on Molt-4 cells was 1.41 µM; with RS4;11 cells it was 0.00136 µM.
With `CC1(C)CC(c2ccc(Cl)cc2)=C2CN3CCN(c4ccc(C(=O)NS(=O)(=O)c5cnc(OCC6(F)CCN(C7COC7)CC6)c(Cl)c5)c(N5CCCOc6nc7[nH]ccc7cc65)c4)C[C@H]3COCCCO[C@@H]2C1` [Example 4, N-((5-chloro-6-((4-fluoro-1-(oxetan-3-yl)piperidin-4-yl)methoxy)pyridin-3-yl)sulfonyl)-4-((4aS,10aR)-14-(4-chlorophenyl)-12,12-dimethyl-1,2,4a,5,8,9,10a,11,13,15-decahydro-7H,12H-benzo[f]pyrazino[2,1-c][1,8]dioxa[4]azacycloundecin-3(4H)-yl)-2-(3,4-dihydro-2H-pyrrolo[3′,2′:5,6]pyrido[2,3-b][1,4]oxazepin-1(7H)-yl)benzamide], the EC50 was 2 µM with Molt-4 cells and 0.00235 µM with RS4;11 cells.
As to `CO[C@H]1CC[C@H](CNc2ccc(S(=O)(=O)NC(=O)c3ccc(N4CCN5CC6=C(c7ccc(Cl)cc7)CC(C)(C)C[C@H]6OCCCOC[C@@H]5C4)cc3N3CCCOc4nc5[nH]ccc5cc43)cc2[N+](=O)[O-])CC1` [Example 5, 4-((4aS,10aR)-14-(4-chlorophenyl)-12,12-dimethyl-1,2,4a,5,8,9,10a,11,13,15-decahydro-7H,12H-benzo[f]pyrazino[2,1-c][1,8]dioxa[4]azacycloundecin-3(4H)-yl)-2-(3,4-dihydro-2H-pyrrolo[3′,2′:5,6]pyrido[2,3-b][1,4]oxazepin-1(7H)-yl)-N-((4-((((1r,4r)-4-methoxycyclohexyl)methyl)amino)-3-nitrophenyl)sulfonyl)benzamide], the concentration giving a half-maximal response (EC50) in the assay with Molt-4 cells worked out at 4.46 µM; in the assay on RS4;11 cells, 0.00711 µM.
Consider `C[C@@H]1CO[C@@H](CNc2ccc(S(=O)(=O)NC(=O)c3ccc(N4CCN5CC6=C(c7ccc(Cl)cc7)CC(C)(C)C[C@H]6OCCCOC[C@@H]5C4)cc3N3CCCOc4nc5[nH]ccc5cc43)cc2[N+](=O)[O-])CO1` [Example 6, 4-((4aS,10aR)-14-(4-chlorophenyl)-12,12-dimethyl-1,2,4a,5,8,9,10a,11,13,15-decahydro-7H,12H-benzo[f]pyrazino[2,1-c][1,8]dioxa[4]azacycloundecin-3(4H)-yl)-2-(3,4-dihydro-2H-pyrrolo[3′,2′:5,6]pyrido[2,3-b][1,4]oxazepin-1(7H)-yl)-N-((4-((((2S,5R)-5-methyl-1,4-dioxan-2-yl)methyl)amino)-3-nitrophenyl)sulfonyl)benzamide], for which the results for the EC50 in the assay with Molt-4 cells and with RS4;11 cells were 1.91 µM and 0.00155 µM, respectively.
As to `CC1(C)CC(c2ccc(Cl)cc2)=C2CN3CCN(c4ccc(C(=O)NS(=O)(=O)c5cnc(OCC6(F)CCOCC6)c(Cl)c5)c(N5CCCOc6nc7[nH]ccc7cc65)c4)C[C@H]3COCCCO[C@@H]2C1` [Example 7, N-((5-chloro-6-((4-fluorotetrahydro-2H-pyran-4-yl)methoxy)pyridin-3-yl)sulfonyl)-4-((4aS,10aR)-14-(4-chlorophenyl)-12,12-dimethyl-1,2,4a,5,8,9,10a,11,13,15-decahydro-7H,12H-benzo[f]pyrazino[2,1-c][1,8]dioxa[4]azacycloundecin-3(4H)-yl)-2-(3,4-dihydro-2H-pyrrolo[3′,2′:5,6]pyrido[2,3-b][1,4]oxazepin-1(7H)-yl)benzamide], the 50% effective concentration (EC50) is above 10 µM in the assay with Molt-4 cells and 0.00546 µM in the assay with RS4;11 cells.
The corresponding values for `CC1(C)CC(c2ccc(Cl)cc2)=C2CN3CCN(c4ccc(C(=O)NS(=O)(=O)c5ccc(NC[C@H]6C[C@@](O)(CF)C6)c([N+](=O)[O-])c5)c(N5CCCOc6nc7[nH]ccc7cc65)c4)C[C@H]3COCCCO[C@@H]2C1` [Example 8, 4-((4aS,10aR)-14-(4-chlorophenyl)-12,12-dimethyl-1,2,4a,5,8,9,10a,11,13,15-decahydro-7H,12H-benzo[f]pyrazino[2,1-c][1,8]dioxa[4]azacycloundecin-3(4H)-yl)-2-(3,4-dihydro-2H-pyrrolo[3′,2′:5,6]pyrido[2,3-b][1,4]oxazepin-1(7H)-yl)-N-((4-((((1r,3r)-3-(fluoromethyl)-3-hydroxycyclobutyl)methyl)amino)-3-nitrophenyl)sulfonyl)benzamide] are 7.48 µM and 0.00361 µM.
Regarding `CC1(C)CC(c2ccc(Cl)cc2)=C2CN3CCN(c4ccc(C(=O)NS(=O)(=O)c5ccc(OCC6(F)CCN(C7COC7)CC6)c(Cl)c5)c(N5CCCOc6nc7[nH]ccc7cc65)c4)C[C@H]3COCCCO[C@@H]2C1` [Example 9, N-(3-chloro-4-{[4-fluoro-1-(oxetan-3-yl)piperidin-4-yl]methoxy}benzene-1-sulfonyl)-4-[(4aS,10aR)-14-(4-chlorophenyl)-12,12-dimethyl-1,2,4a,5,8,9,11,12,13,15-decahydro-7H,10aH-pyrazino[2,1-g][1,5,8]benzodioxazacycloundecin-3(4H)-yl]-2-(3,4-dihydro-2H-pyrrolo[3′,2′:5,6]pyrido[2,3-b][1,4]oxazepin-1(7H)-yl)benzamide], the figures for the EC50 with Molt-4 cells and with RS4;11 cells were 5.59 µM and 0.00796 µM, respectively.
Regarding `CC1(C)CC(c2ccc(Cl)cc2)=C2CN3CCN(c4ccc(C(=O)NS(=O)(=O)c5cnc(OC[C@]6(F)CC[C@@H](N7CCOCC7)CC6)c(Cl)c5)c(N5CCCOc6nc7[nH]ccc7cc65)c4)C[C@H]3COCCCO[C@@H]2C1` [Example 10, N-((5-chloro-6-(((1s,4s)-1-fluoro-4-morpholinocyclohexyl)methoxy)pyridin-3-yl)sulfonyl)-4-((4aS,10aR)-14-(4-chlorophenyl)-12,12-dimethyl-1,2,4a,5,8,9,10a,11,13,15-decahydro-7H,12H-benzo[f]pyrazino[2,1-c][1,8]dioxa[4]azacycloundecin-3(4H)-yl)-2-(3,4-dihydro-2H-pyrrolo[3′,2′:5,6]pyrido[2,3-b][1,4]oxazepin-1(7H)-yl)benzamide], the EC50 came to 1.56 µM in the assay with Molt-4 cells and 0.00373 µM in the assay on RS4;11 cells.
On the same counts, the results for `CC1(C)CC(c2ccc(Cl)cc2)=C2CN3CCN(c4ccc(C(=O)NS(=O)(=O)c5cnc(OC[C@]6(F)CC[C@H](N7CCOCC7)CC6)c(Cl)c5)c(N5CCCOc6nc7[nH]ccc7cc65)c4)C[C@H]3COCCCO[C@@H]2C1` [Example 11, N-((5-chloro-6-(((1r,4r)-1-fluoro-4-morpholinocyclohexyl)methoxy)pyridin-3-yl)sulfonyl)-4-((4aS,10aR)-14-(4-chlorophenyl)-12,12-dimethyl-1,2,4a,5,8,9,10a, 11,13,15-decahydro-7H,12H-benzo[f]pyrazino[2,1-c][1,8]dioxa[4]azacycloundecin-3(4H)-yl)-2-(3,4-dihydro-2H-pyrrolo[3′,2′:5,6]pyrido[2,3-b][1,4]oxazepin-1(7H)-yl)benzamide] are 3.71 µM and 0.019 µM.
